PubChem BioAssay AID651853 (NMMLSC, 2012)
pEC50: −log10 of the molar value.

system: AM2.2 cells FAP-GPR32, fluorogen binding, flow cytometry MCF; experiment: interference with FAP fluorogen signal – human GPR32, AM2.2 cells, powder set 3, counter-screen for beta2AR agonist internalization project, dose response (AID 651853)

Point of comparison: `CC(Sc1nc(-c2ccccc2)cc(C(F)(F)F)n1)C(=O)N1CCCCC1` (stereo not given), pEC50 8.00. Against it:
- Cc1ncc(CN2CCCC(C(=O)Nc3ccc(-c4cccc(F)c4)cc3)C2)s1 (stereo not given) — 1.94 log units lower, 6.06
- CSc1nc(SCCO)c2sc3nc(-c4ccco4)c4c(c3c2n1)CC(C)(C)OC4 — 2.26 log units lower, 5.74
- CC(C)Cc1nc2sc3c(NCc4ccco4)ncnc3c2c2c1COC(C)(C)C2 — 0.30 log units lower, 7.70
- O=C(c1cc2c(=O)n3ccccc3nc2s1)N1CCN(Cc2ccc3c(c2)OCO3)CC1 — 1.04 log units lower, 6.96
- Cc1ccc(Cn2ccc(NC(=O)c3cc4nc(-c5ccco5)cc(C(F)(F)F)n4n3)n2)cc1 — the same, 8.00
- COc1ccc(OC)c(CCNC(=O)C2CCN(c3nnc(-n4cccc4)s3)CC2)c1 — 2.15 log units lower, 5.85
- Clc1ccc(OCc2nnc(SCc3nc4ccccc4[nH]3)n2Cc2ccco2)cc1 — the same, 8.00
- Cc1ccc(NC(=O)C(c2ccc(Cl)cc2)N2CCOCC2)cc1 (stereo not given) — 1.96 log units lower, 6.04
- C=CCn1c(CCNC(=O)c2cccs2)nnc1SCC(=O)c1ccc(Br)cc1 — the same, 8.00
- Clc1cccc(-c2nnc(SCc3nc4ccccc4[nH]3)n2Cc2ccco2)c1 — 2.86 log units lower, 5.14
- CN(Cc1ccccc1)S(=O)(=O)c1ccc(NS(=O)(=O)Cc2ccccc2)cc1 — 0.70 log units lower, 7.30
- CC(Oc1ccc(Cl)cc1Cl)c1nc(-c2ccc(NC(=O)c3ccccn3)cc2)no1 (stereo not given) — 1.08 log units lower, 6.92
- Cn1c(N2CCN(c3ccccn3)CC2)nc2c1c(=O)n(Cc1ccc(Cl)cc1)c(=O)n2C — the same, 8.00
- CC(Oc1ccc(Cl)cc1Cl)c1nc(-c2ccc(NC(=O)c3ccco3)cc2)no1 (stereo not given) — 1.36 log units lower, 6.64
- Cc1ccccc1N1CCN(c2ncnc3c2cnn3Cc2ccc(Cl)cc2)CC1 — 2.34 log units lower, 5.66
- CC(=O)Nc1ccc(S(=O)(=O)N2CCC(Oc3ccc(-n4cnnn4)cc3)CC2)cc1 — 0.60 log units lower, 7.40
- Cc1ccc(OCc2cc(C(=O)N(C)Cc3cnn(-c4ccccc4C)c3)no2)cn1 — 0.78 log units lower, 7.22
- CC1(C)Cc2c(c(N3CCCC3)nc3sc4c(N5CCN(CCO)CC5)ncnc4c23)CO1 — 2.41 log units lower, 5.59
- CC(Sc1nc(-c2ccccc2)cc(C(F)(F)F)n1)C(=O)N1CCOCC1 (stereo not given) — 0.30 log units lower, 7.70
